Test results as given in publication PMC2900185 (Biochemistry, 2010).

Columns and labels:
[1] = test system: Ste2p containing the substitution R58A; experiment: Binding of α-factor to Ste2p with substitution R58A; parameters: species or system Saccharomyces cerevisiae
[2] = target: Ste2p (R58A) (S. cerevisiae) (UniProt D6VTK4)
Chain of UniProt D6VTK4 (D6VTK4 whole entry R58A): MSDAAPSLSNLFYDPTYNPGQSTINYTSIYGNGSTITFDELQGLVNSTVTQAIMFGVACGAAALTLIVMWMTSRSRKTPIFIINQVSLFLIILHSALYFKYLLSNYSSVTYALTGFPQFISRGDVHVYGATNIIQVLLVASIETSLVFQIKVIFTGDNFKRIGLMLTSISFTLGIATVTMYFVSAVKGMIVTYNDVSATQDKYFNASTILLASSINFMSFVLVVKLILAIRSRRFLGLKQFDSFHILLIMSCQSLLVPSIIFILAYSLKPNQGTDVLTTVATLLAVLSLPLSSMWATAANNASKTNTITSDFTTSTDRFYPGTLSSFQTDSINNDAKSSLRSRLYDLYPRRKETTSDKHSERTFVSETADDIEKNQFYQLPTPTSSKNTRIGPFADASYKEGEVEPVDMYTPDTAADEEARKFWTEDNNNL

Substance	fold lower affinity for α-factor relative to wild-type Ste2p [1]	fold higher Kd than wild-type Ste2p [2]
WHWLQLKPGQPMY [α-factor]	~10 fold	–
α-factor (as used with the ste2 R58 mutants) (peptide)	–	10 fold
